“And” between values parts separate entries of the source, which are not always exact repeats. Identical values can stand only once. Inconclusive results and toxic doses are left out. The calls were made as follows: active = survival T/C of 150% or more; inactive = T/C below 125% in these data.
Tested on: CD2F1 mice, L1210 leukemia ip, survival T/C
Assay: NCI In Vivo Anticancer Drug Screen. Data for tumor model L1210 Leukemia (intraperitoneal) in CD2F1 (CDF1) mice
Conditions: higher = longer survival
How it was run: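 Implant tumor; dose compound or vehicle; measure endpoint in both groups; report treated divided by control.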

[1] = endpoint: mean survival time, dose: 100.0 mg/kg/injection, schedule: Q01DX001 (ip), vehicle: saline with Tween-80
[2] = endpoint: mean survival time, dose: 200.0 mg/kg/injection, schedule: Q01DX001 (ip), vehicle: saline with Tween-80
[3] = endpoint: mean survival time, dose: 400.0 mg/kg/injection, schedule: Q01DX001 (ip), vehicle: saline with Tween-80
[4] = endpoint: mean survival time, dose: 12.5 mg/kg/injection, schedule: Q01DX009 (ip), vehicle: saline
[5] = endpoint: mean survival time, dose: 25.0 mg/kg/injection, schedule: Q01DX009 (ip), vehicle: saline
[6] = endpoint: mean survival time, dose: 50.0 mg/kg/injection, schedule: Q01DX009 (ip), vehicle: saline
[7] = endpoint: mean survival time, dose: 100.0 mg/kg/injection, schedule: Q04DX003 (ip), vehicle: saline
[8] = endpoint: mean survival time, dose: 100.0 mg/kg/injection, schedule: Q04DX003 (ip), vehicle: saline with Tween-80
[9] = endpoint: mean survival time, dose: 200.0 mg/kg/injection, schedule: Q04DX003 (ip), vehicle: saline with Tween-80
[10] = endpoint: mean survival time, dose: 400.0 mg/kg/injection, schedule: Q04DX003 (ip), vehicle: saline with Tween-80
[11] = endpoint: mean survival time, dose: 25.0 mg/kg/injection, schedule: Q01DX009 (ip), vehicle: saline with Tween-80
[12] = endpoint: mean survival time, dose: 50.0 mg/kg/injection, schedule: Q04DX003 (ip), vehicle: saline with Tween-80
[13] = endpoint: mean survival time, dose: 100.0 mg/kg/injection, schedule: Q01DX001 (ip), vehicle: other
[14] = endpoint: mean survival time, dose: 75.0 mg/kg/injection, schedule: Q01DX001 (ip), vehicle: saline
[15] = endpoint: mean survival time, dose: 150.0 mg/kg/injection, schedule: Q01DX001 (ip), vehicle: saline
[16] = endpoint: mean survival time, dose: 25.0 mg/kg/injection, schedule: Q01DX009 (ip), vehicle: Klucel (hydroxypropylcellulose) (HPC)
[17] = endpoint: mean survival time, dose: 50.0 mg/kg/injection, schedule: Q01DX009 (ip), vehicle: Klucel (hydroxypropylcellulose) (HPC)
[18] = endpoint: mean survival time, dose: 100.0 mg/kg/injection, schedule: Q01DX009 (ip), vehicle: Klucel (hydroxypropylcellulose) (HPC)

Measured: T/C

CN(/N=C/c1ccc([N+](=O)[O-])cc1)c1ccccc1
inactive: [1] 100 % of control | [2] 106 % of control | [3] 91 % of control

Oc1ccccc1C=NCC[N-]CCN=Cc1ccccc1O.[Co]
inactive: [4] 115 % of control | endpoint: mean survival time, dose: 12.5 mg/kg/injection, schedule: Q04DX003 (ip), vehicle: saline 107 % of control | [5] 103 % of control | endpoint: mean survival time, dose: 25.0 mg/kg/injection, schedule: Q04DX003 (ip), vehicle: saline 100 % of control | [6] 97 % of control | endpoint: mean survival time, dose: 50.0 mg/kg/injection, schedule: Q04DX003 (ip), vehicle: saline 103 % of control | [7] 107 % of control

Cc1ccc([N+](=O)[O-])cc1NC(=O)Oc1ccc(Cl)cc1
inactive: endpoint: mean survival time, dose: 100.0 mg/kg/injection, schedule: Q01DX009 (ip), vehicle: saline with Tween-80 98 % of control | [8] 92 % of control | endpoint: mean survival time, dose: 200.0 mg/kg/injection, schedule: Q01DX009 (ip), vehicle: saline with Tween-80 98 % of control | [9] 95 % of control | endpoint: mean survival time, dose: 400.0 mg/kg/injection, schedule: Q01DX009 (ip), vehicle: saline with Tween-80 91 % of control | [10] 88 % of control

Cc1cc2[nH]cnc2cc1Cl
inactive: [6] 98 % of control | endpoint: mean survival time, dose: 100.0 mg/kg/injection, schedule: Q01DX009 (ip), vehicle: saline 106 % of control

COc1ccc(OC)c(CCN)c1
inactive: endpoint: mean survival time, dose: 12.5 mg/kg/injection, schedule: Q01DX009 (ip), vehicle: saline with Tween-80 101 % of control | [11] 102 % of control | endpoint: mean survival time, dose: 25.0 mg/kg/injection, schedule: Q04DX003 (ip), vehicle: saline with Tween-80 100 % of control | endpoint: mean survival time, dose: 50.0 mg/kg/injection, schedule: Q01DX009 (ip), vehicle: saline with Tween-80 93 % of control | [12] 97 % of control | [8] 108 % of control

CNC(=O)C1CCC(CC2CCCCC2)CC1 (configuration not stated)
inactive: [1] 93 % of control | [2] 93 % of control | [3] 102 % of control

CN(C)C(=O)Oc1cccc(NC(=O)Nc2cccc(OC(=O)N(C)C)c2)c1
inactive: [1] 105 % of control | [2] 98 % of control | [3] 97 % of control

O=C(CC(O)(C(F)(F)F)C(F)(F)F)C(Cl)C(O)(C(F)(F)F)C(F)(F)F (configuration not stated)
inactive: [13] 102 % of control

NC(=O)c1ncn(CCCCCO)c1N
inactive: [13] 91 % of control | endpoint: mean survival time, dose: 200.0 mg/kg/injection, schedule: Q01DX001 (ip), vehicle: other 103 % of control | endpoint: mean survival time, dose: 400.0 mg/kg/injection, schedule: Q01DX001 (ip), vehicle: other 101 % of control

Cc1c(O)c(N=NC(N)=S)c2ccccc2c1O
inactive: [8] 100 % of control | [9] 102 % of control | [10] 100 % of control

Cc1ccc(S(=O)(=O)N/N=C/Cc2c(C)cc(C)cc2C)cc1
inactive: endpoint: median survival time, dose: 25.0 mg/kg/injection, schedule: Q04DX002 (ip), vehicle: saline with Tween-80 100 % of control | endpoint: median survival time, dose: 50.0 mg/kg/injection, schedule: Q04DX002 (ip), vehicle: saline with Tween-80 100 % of control | endpoint: median survival time, dose: 100.0 mg/kg/injection, schedule: Q04DX002 (ip), vehicle: saline with Tween-80 100 % of control | endpoint: median survival time, dose: 200.0 mg/kg/injection, schedule: Q04DX002 (ip), vehicle: saline with Tween-80 110 % of control

COC(=O)CC(=O)CBr
inactive: endpoint: mean survival time, dose: 5.0 mg/kg/injection, schedule: Q01DX001 (ip), vehicle: saline with Tween-80 95 % of control | endpoint: mean survival time, dose: 5.0 mg/kg/injection, schedule: Q01DX009 (ip), vehicle: saline with Tween-80 100 % of control | endpoint: mean survival time, dose: 10.0 mg/kg/injection, schedule: Q01DX001 (ip), vehicle: saline with Tween-80 95 % of control | endpoint: mean survival time, dose: 10.0 mg/kg/injection, schedule: Q01DX009 (ip), vehicle: saline with Tween-80 97 % of control | endpoint: mean survival time, dose: 20.0 mg/kg/injection, schedule: Q01DX001 (ip), vehicle: saline with Tween-80 95 % of control | endpoint: mean survival time, dose: 20.0 mg/kg/injection, schedule: Q01DX009 (ip), vehicle: saline with Tween-80 97 % of control

CN1CCCC(OC(=O)C(c2ccccc2)C2(O)CCCCC2)C1 (configuration not stated)
inactive: [14] 101 % of control

CC(C)=C/C(C)=C(/C#N)C(=O)OC(C)C
inactive: [14] 97 % of control | [15] 97 % of control

CCOC(=O)C(CNc1ccccc1)C(=O)OCC
inactive: [8] 101 % of control | [9] 104 % of control | [10] 104 % of control

O=C(O)CN(CC(=O)O)C1CCCCC1N(CC(=O)O)CC(=O)O.[Cl][Pd][Cl] (configuration not stated)
inactive: endpoint: median survival time, dose: 10.0 mg/kg/injection, schedule: Q04DX003 (ip), vehicle: saline 103 % of control | endpoint: median survival time, dose: 20.0 mg/kg/injection, schedule: Q04DX003 (ip), vehicle: saline 100 % of control | endpoint: median survival time, dose: 40.0 mg/kg/injection, schedule: Q04DX003 (ip), vehicle: saline 103 % of control | endpoint: median survival time, dose: 80.0 mg/kg/injection, schedule: Q04DX003 (ip), vehicle: saline 103 % of control and 106 % of control | endpoint: median survival time, dose: 160.0 mg/kg/injection, schedule: Q04DX003 (ip), vehicle: saline 98 % of control

O=C(O)C[N-]c1ccccc1.O=C(O)C[N-]c1ccccc1.[Ni+2]
inactive: [11] 95 % of control | [12] 107 % of control | [8] 106 % of control

FC(F)(F)c1cccc(NC2=NCCO2)c1
inactive: [1] 92 % of control | [2] 93 % of control | [3] 91 % of control

C/C=C(\Br)C(=O)O
inactive: endpoint: mean survival time, dose: 25.0 mg/kg/injection, schedule: Q04DX002 (ip), vehicle: saline with Tween-80 101 % of control | endpoint: mean survival time, dose: 50.0 mg/kg/injection, schedule: Q04DX002 (ip), vehicle: saline with Tween-80 101 % of control | endpoint: mean survival time, dose: 100.0 mg/kg/injection, schedule: Q04DX002 (ip), vehicle: saline with Tween-80 104 % of control

CC(=O)Nc1ccc(S(N)(=O)=O)cc1
inactive: [16] 100 % of control | [17] 95 % of control | [18] 100 % of control

CCCC(C)C1C(=O)N(C)C(=O)N(C)C1=O (configuration not stated)
inactive: [14] 104 % of control | [15] 103 % of control | endpoint: mean survival time, dose: 300.0 mg/kg/injection, schedule: Q01DX001 (ip), vehicle: saline 98 % of control

O=C(CCOP(=O)(N(CCCl)CCCl)N1CC1)OCc1ccccc1 (configuration not stated)
inactive: [16] 97 % of control | [17] 94 % of control | [18] 97 % of control | endpoint: mean survival time, dose: 125.0 mg/kg/injection, schedule: Q01DX001 (ip), vehicle: Klucel (hydroxypropylcellulose) (HPC) 98 % of control | endpoint: mean survival time, dose: 200.0 mg/kg/injection, schedule: Q01DX009 (ip), vehicle: Klucel (hydroxypropylcellulose) (HPC) 97 % of control | endpoint: mean survival time, dose: 250.0 mg/kg/injection, schedule: Q01DX001 (ip), vehicle: Klucel (hydroxypropylcellulose) (HPC) 107 % of control | endpoint: mean survival time, dose: 400.0 mg/kg/injection, schedule: Q01DX009 (ip), vehicle: Klucel (hydroxypropylcellulose) (HPC) 107 % of control | endpoint: mean survival time, dose: 500.0 mg/kg/injection, schedule: Q01DX001 (ip), vehicle: Klucel (hydroxypropylcellulose) (HPC) 103 % of control | endpoint: mean survival time, dose: 1000.0 mg/kg/injection, schedule: Q01DX001 (ip), vehicle: Klucel (hydroxypropylcellulose) (HPC) 95 % of control

Cc1cc(C(C)(C)C)c(Oc2ccc([N+](=O)[O-])cc2S(=O)(=O)O)c(C(C)(C)C)c1
inactive: [8] 102 % of control | [9] 101 % of control | [10] 92 % of control

Cc1ccc(Sc2ncnc3c2ncn3C2OC(CO)C(O)C2O)cc1 (configuration not stated)
inactive: endpoint: mean survival time, dose: 12.5 mg/kg/injection, schedule: Q01DX005 (ip), vehicle: distilled water + Tween-80 96 % of control | endpoint: mean survival time, dose: 25.0 mg/kg/injection, schedule: Q01DX005 (ip), vehicle: distilled water + Tween-80 90 % of control | endpoint: mean survival time, dose: 50.0 mg/kg/injection, schedule: Q01DX005 (ip), vehicle: distilled water + Tween-80 94 % of control | endpoint: mean survival time, dose: 100.0 mg/kg/injection, schedule: Q01DX005 (ip), vehicle: distilled water + Tween-80 90 % of control | endpoint: mean survival time, dose: 200.0 mg/kg/injection, schedule: Q01DX005 (ip), vehicle: distilled water + Tween-80 94 % of control

NNC(=O)CCC(=O)NN
inactive: endpoint: mean survival time, dose: 6.25 mg/kg/injection, schedule: Q01DX009 (ip), vehicle: saline 111 % of control | [4] 103 % of control | [5] 97 % of control | [7] 98 % of control | endpoint: mean survival time, dose: 200.0 mg/kg/injection, schedule: Q04DX003 (ip), vehicle: saline 113 % of control | endpoint: mean survival time, dose: 400.0 mg/kg/injection, schedule: Q04DX003 (ip), vehicle: saline 101 % of control

O=P(OCc1ccccc1)(N(CCCl)CCCl)N1CCCC1 (configuration not stated)
inactive: endpoint: mean survival time, dose: 128.0 mg/kg/injection, schedule: Q01DX Z (ip), vehicle: saline 101 % of control
